Measured values published in patent US10287305B2, “Substituted piperidine compound and use thereof” (Takeda Pharmaceutical Company Limited, priority 2016, dated 2019).
pEC50: −log10 of the molar value.

Molecular target: human orexin type 2 receptor (hOX2R) (Homo sapiens (Human), UniProt O43614)
Assay: Measurement of orexin type 2 receptor agonist activity (Experimental Example 2-1, FLIPR TETRA, intracellular Ca2+);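 on Emax: Buffer-only well is 0% and 10 nM human orexin B is 100%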
Assay type: cell-based
Settings: CHO dhfr- cells expressing hOX2R; for pEC50: agonist activity, 10 nM human orexin B = 100%; for Emax at 30 µM: value at 30 uM concentration, orexin B as full agonist = 100%

human orexin type 2 receptor (hOX2R), sequence (O43614 whole entry): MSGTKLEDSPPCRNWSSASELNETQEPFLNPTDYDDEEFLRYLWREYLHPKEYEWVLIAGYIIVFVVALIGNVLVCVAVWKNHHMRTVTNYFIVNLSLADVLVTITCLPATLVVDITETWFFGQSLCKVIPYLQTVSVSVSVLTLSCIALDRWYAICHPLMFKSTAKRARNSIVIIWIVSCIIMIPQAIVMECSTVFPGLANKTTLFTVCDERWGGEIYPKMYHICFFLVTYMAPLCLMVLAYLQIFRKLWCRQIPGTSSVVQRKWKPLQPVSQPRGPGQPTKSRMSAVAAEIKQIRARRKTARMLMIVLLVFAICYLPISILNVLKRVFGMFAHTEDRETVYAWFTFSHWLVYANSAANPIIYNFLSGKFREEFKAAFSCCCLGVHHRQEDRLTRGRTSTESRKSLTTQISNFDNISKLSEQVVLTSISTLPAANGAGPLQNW

Structure (SMILES)	pEC50	Emax at 30 µM [%]
CS(=O)(=O)N[C@H]1CCCN[C@H]1CO[C@H]1CC[C@@H](c2cc(F)cc(F)c2)CC1 [Example 7, N-((2R,3S)-2-(((cis-4-(3,5-difluorophenyl)cyclohexyl)oxy)methyl)piperidin-3-yl)methanesulfonamide]	6.60	100
CS(=O)(=O)N[C@H]1CCCN[C@H]1CO[C@H]1CC[C@@H](c2cc(F)ccc2F)CC1 [Example 10, N-((2R,3S)-2-(((cis-4-(2,5-difluorophenyl)cyclohexyl)oxy)methyl)piperidin-3-yl)methanesulfonamide]	6.66	113
COC(=O)N1CCC[C@H](NS(C)(=O)=O)[C@@H]1CO[C@H]1CC[C@@H](c2cc(F)ccc2F)CC1 [Example 11, methyl (2R,3S)-2-(((cis-4-(2,5-difluorophenyl)cyclohexyl)oxy)methyl)-3-((methylsulfonyl)amino)piperidine-1-carboxylate]	8.70	114
CS(=O)(=O)N[C@H]1CCCN[C@H]1CO[C@H]1CC[C@@H](c2c(F)cccc2F)CC1 [Example 13, N-((2R,3S)-2-(((cis-4-(2,6-difluorophenyl)cyclohexyl)oxy)methyl)piperidin-3-yl)methanesulfonamide]	6.89	115
CS(=O)(=O)N[C@H]1CCCN(C(=O)C2CC2)[C@H]1CO[C@H]1CC[C@@H](c2cccc(F)c2)CC1 [Example 16, N-((2R,3S)-1-(cyclopropylcarbonyl)-2-(((cis-4-(3-fluorophenyl)cyclohexyl)oxy)methyl)piperidin-3-yl)methanesulfonamide]	9.08	99
CS(=O)(=O)N[C@H]1CCCN[C@H]1CO[C@H]1CC[C@@H](c2cccc(F)c2F)CC1 [Example 18, N-((2R,3S)-2-(((cis-4-(2,3-difluorophenyl)cyclohexyl)oxy)methyl)piperidin-3-yl)methanesulfonamide]	6.28	96
COC(=O)N1CCC[C@H](NS(C)(=O)=O)[C@@H]1CO[C@H]1CC[C@@H](c2cccc(F)c2F)CC1 [Example 20, methyl (2R,3S)-2-(((cis-4-(2,3-difluorophenyl)cyclohexyl)oxy)methyl)-3-((methylsulfonyl)amino)piperidine-1-carboxylate]	–	100
CS(=O)(=O)N[C@H]1CCCN[C@H]1CO[C@H]1CC[C@@H](c2c(F)ccc(F)c2F)CC1 [Example 21, N-((2R,3S)-2-(((cis-4-(2,3,6-trifluorophenyl)cyclohexyl)oxy)methyl)piperidin-3-yl)methanesulfonamide]	6.70	108
CC(=O)N1CCC[C@H](NS(C)(=O)=O)[C@@H]1CO[C@H]1CC[C@@H](c2c(F)ccc(F)c2F)CC1 [Example 22, N-((2R,3S)-1-acetyl-2-(((cis-4-(2,3,6-trifluorophenyl)cyclohexyl)oxy)methyl)piperidin-3-yl)methanesulfonamide]	8.28	98
CS(=O)(=O)N[C@H]1CCCN[C@H]1CO[C@H]1CC[C@@H](c2ccccc2C(F)(F)F)CC1 [Example 23, N-((2R,3S)-2-(((cis-4-(2-(trifluoromethyl)phenyl)cyclohexyl)oxy)methyl)piperidin-3-yl)methanesulfonamide]	5.92	90
CC(=O)N1CCC[C@H](NS(C)(=O)=O)[C@@H]1CO[C@H]1CC[C@@H](c2ccccc2C(F)(F)F)CC1 [Example 24, N-((2R,3S)-1-acetyl-2-(((cis-4-(2-(trifluoromethyl)phenyl)cyclohexyl)oxy)methyl)piperidin-3-yl)methanesulfonamide]	7.68	102
CS(=O)(=O)N[C@H]1CCCN(C(=O)CO)[C@H]1CO[C@H]1CC[C@@H](c2cccc(F)c2F)CC1 [Example 25, N-((2R,3S)-2-(((cis-4-(2,3-difluorophenyl)cyclohexyl)oxy)methyl)-1-glycoloylpiperidin-3-yl)methanesulfonamide]	8.10	94
COc1ccccc1[C@H]1CC[C@@H](OC[C@@H]2NCCC[C@@H]2NS(C)(=O)=O)CC1 [Example 27, N-((2R,3S)-2-(((cis-4-(2-methoxyphenyl)cyclohexyl)oxy)methyl)piperidin-3-yl)methanesulfonamide]	6.51	108
COc1ccccc1[C@H]1CC[C@@H](OC[C@H]2[C@@H](NS(C)(=O)=O)CCCN2C(=O)C2CC2)CC1 [Example 28, N-((2R,3S)-1-(cyclopropylcarbonyl)-2-(((cis-4-(2-methoxyphenyl)cyclohexyl)oxy)methyl)piperidin-3-yl)methanesulfonamide]	8.57	96
CC(C)OC(=O)N1CCC[C@H](NS(=O)(=O)N(C)C)[C@@H]1COC1CCN(c2ncccn2)CC1 [Example 29, isopropyl (2R,3S)-3-((dimethylsulfamoyl)amino)-2-(((1-(pyrimidin-2-yl)piperidin-4-yl)oxy)methyl)piperidine-1-carboxylate]	7.77	104
CS(=O)(=O)N[C@H]1CCCN(C(=O)C2CC2)[C@H]1CO[C@H]1CC[C@@H](c2ccccc2)CC1 [Example 31, N-((2R,3S)-1-(cyclopropylcarbonyl)-2-(((cis-4-phenylcyclohexyl)oxy)methyl)piperidin-3-yl)methanesulfonamide]	9.18	95
COC(=O)N1CCC[C@H](NS(C)(=O)=O)[C@@H]1CO[C@H]1CC[C@@H](c2ccccc2C(F)(F)F)CC1 [Example 32, methyl (2R,3S)-3-((methylsulfonyl)amino)-2-(((cis-4-(2-(trifluoromethyl)phenyl)cyclohexyl)oxy)methyl)piperidine-1-carboxylate]	7.82	102
[2H]C1C([2H])[C@]([2H])(C(C)C)C([2H])C([2H])[C@]1([2H])OC[C@H]1[C@@H](NS(C)(=O)=O)CCCN1C(C)=O (stereo partly drawn) [Example 103, N-(cis-1-acetyl-2-(((cis-4-isopropyl(1,2,3,4,5,6-d6)cyclohexyl)oxy)methyl)piperidin-3-yl)methanesulfonamide]	6.77	98

The remaining lines, values ahead:

pEC50	Emax at 30 µM [%]	Structure (SMILES)
7.36	106	CC(=O)N1CCC[C@H](NS(C)(=O)=O)[C@@H]1CO[C@H]1CC[C@@H](c2ccccc2)CC1 [Example 4, N-((2R,3S)-1-acetyl-2-(((cis-4-phenylcyclohexyl)oxy)methyl)piperidin-3-yl)methanesulfonamide]
8.25	96	CC(=O)N1CCC[C@H](NS(C)(=O)=O)[C@@H]1CO[C@H]1CC[C@@H](c2cc(F)cc(F)c2)CC1 [Example 8, N-((2R,3S)-1-acetyl-2-(((cis-4-(3,5-difluorophenyl)cyclohexyl)oxy)methyl)piperidin-3-yl)methanesulfonamide]
8.18	105	CC(=O)N1CCC[C@H](NS(C)(=O)=O)[C@@H]1CO[C@H]1CC[C@@H](c2c(F)cccc2F)CC1 [Example 14, N-((2R,3S)-1-acetyl-2-(((cis-4-(2,6-difluorophenyl)cyclohexyl)oxy)methyl)piperidin-3-yl)methanesulfonamide]
7.92	102	CC(=O)N1CCC[C@H](NS(C)(=O)=O)[C@@H]1CO[C@H]1CC[C@@H](c2cccc(F)c2F)CC1 [Example 19, N-((2R,3S)-1-acetyl-2-(((cis-4-(2,3-difluorophenyl)cyclohexyl)oxy)methyl)piperidin-3-yl)methanesulfonamide]
7.17	98	CCS(=O)(=O)N[C@H]1CCCN(C(C)=O)[C@H]1CO[C@H]1CC[C@@H](C(C)C)CC1 [Example 33, N-((2R,3S)-1-acetyl-2-(((cis-4-isopropylcyclohexyl)oxy)methyl)piperidin-3-yl)ethanesulfonamide]
7.01	98	CC(=O)N1CCC[C@H](NS(C)(=O)=O)[C@@H]1CO[C@H]1CC[C@@H](C(C)C)CC1 [Example 70, N-((2R,3S)-1-acetyl-2-(((cis-4-isopropylcyclohexyl)oxy)methyl)piperidin-3-yl)methanesulfonamide]
5.37	83	CC(=O)N1CCC[C@H](NS(C)(=O)=O)[C@@H]1CO[C@H]1CC[C@@H](C2CCCCC2)CC1 [Example 71, N-(cis-1-acetyl-2-(((1s,4s)-1,1′-bi(cyclohexyl)-4-yloxy)methyl)piperidin-3-yl)methanesulfonamide]
6.08	98	CC(C)[C@H]1CC[C@@H](OC[C@H]2[C@@H](NS(C)(=O)=O)CCCN2C(=O)COc2ccn(C)n2)CC1 [Example 84, N-((2R,3S)-2-(((cis-4-isopropylcyclohexyl)oxy)methyl)-1-(((1-methyl-1H-pyrazol-3-yl)oxy)acetyl)piperidin-3-yl)methanesulfonamide]
5.31	82	CC(C)[C@H]1CC[C@@H](OC[C@H]2[C@@H](NS(C)(=O)=O)CCCN2C(=O)C2CCC(=O)N2)CC1 (stereo partly drawn) [Example 87, N-(cis-2-(((cis-4-isopropylcyclohexyl)oxy)methyl)-1-(5-oxoprolyl)piperidin-3-yl)methanesulfonamide]
7.41	89	CC(C)[C@H]1CC[C@@H](OC[C@H]2[C@@H](NS(C)(=O)=O)CCCN2C(=O)C2CC(=O)C2)CC1 [Example 91, N-((2R,3S)-2-(((cis-4-isopropylcyclohexyl)oxy)methyl)-1-((3-oxocyclobutyl)carbonyl)piperidin-3-yl)methanesulfonamide]
6.43	92	CC(C)[C@H]1CC[C@@H](OC[C@H]2[C@@H](NS(C)(=O)=O)CCCN2C(=O)C2CC(O)C2)CC1 (stereo partly drawn) [Example 92, N-((2R,3S)-1-((3-hydroxycyclobutyl)carbonyl)-2-(((cis-4-isopropylcyclohexyl)oxy)methyl)piperidin-3-yl)methanesulfona]
8.92	101	CNC(=O)N1CCC[C@H](NS(C)(=O)=O)[C@@H]1CO[C@H]1CC[C@@H](C(C)C)CC1 [Example 102, (2R,3S)-2-(((cis-4-isopropylcyclohexyl)oxy)methyl)-N-methyl-3-((methylsulfonyl)amino)piperidine-1-carboxamide]
